Assay results reported in patent US20260345723A1, “Treatments for Opioid-Induced Respiratory Depression” (priority 2023, published 2026).
Read-outs that look alike come from different tables or passages of the source.

Columns and labels:
[1] = assay type: in vivo, Rhesus macaque (Macaca mulatta); settings: seven days
CCR8 = settings: mechanism involving CCR8; cited from earlier work
CCR5 = settings: cited from earlier work
[2] = system: morphine physical dependence; experiment: Morphine physical dependence (naloxone-precipitated withdrawal signs); assay type: in vivo, rat (male Sprague Dawley)
Protocol: (§1) Adult male Sprague Dawley (226-275 g) were purchased from Taconic Laboratories and maintained on a 12-hour/12-hour light/dark cycle with the lights off at 9:30 a.m. in a temperature- and humidity-controlled animal care facility. For the duration of the experiment, rats were housed two per cage and given unrestricted access to food and water at all times when in the home cage.
Rats were implanted (SC, flank area) with 75 mg morphine pellets that remained intact for 7 days. Beginning on the day of pellet implantation, rats received daily injections of saline or RAP-103 (0.001, 0.1 or 1 mg/kg, IP, delivered in […]) throughout chronic morphine exposure. On the test day, rats were transported to the testing room and allowed to acclimate for 60 min before naloxone hydrochloride (10 mg/kg, IP, delivered in a 1 ml/kg volume) was injected to precipitate withdrawal signs. Immediately after naloxone administration, rats were placed into individual observation boxes and observed for 60 min. A modified version of the Gellet-Holtzman scale was used to grade withdrawal signs. Wet dog shakes, teeth chattering, eye blinks, and paw tremor were evaluated as the number of qualitatively observed occurrences over the 60-min test time.
(§2) Respiratory depression data were analyzed by two-way ANOVA (RAP-103 pretreatment×morphine treatment) followed by a Bonferroni's multiple comparison test. Physical dependence data were analyzed by a Student's t-test. Self-administration (SA) time-course data for heroin and sucrose were analyzed by two-way ANOVA (RAP-103 treatment x day) followed by a Bonferroni's multiple comparison test. SA PR challenge data were analyzed by a Student's t-test. Protein and mRNA data were analyzed by two-way ANOVA (RAP-103 pretreatment x morphine treatment) followed by a Newman-Keuls post-hoc analysis. In all cases, P<0.05 was considered statistically significant.

[3] = system: heroin self-administration; experiment: Heroin intravenous self-administration (FR and PR); assay type: in vivo, rat (male Sprague Dawley); settings: RAP-103 1 mg/kg IP
Description: as §1
Rats were anesthetized using vaporized isoflurane delivered via nebulizer. An indwelling silastic catheter was threaded subcutaneously over the shoulder blade, inserted in the jugular vein and sutured in place. The catheter routed to a cotton back mount platform that was sutured below the skin between the shoulder blades. Post-operation, catheters were flushed daily with 0.2 ml of timentin (0.93 mg/mL) dissolved in heparinized saline and covered with magnetic aluminum caps.
Following 5 days of post-operative recovery, rats began daily intravenous self-administration of heroin in Med-Associates operant chambers for at least 10 d. […] During IVSA, infusions of 0.1 mg/kg/inf heroin were rewarded to the animal after pressing the active lever. […]
Progressive ratio (PR) schedules of drug delivery are used to determine the ‘motivational’ state of an animal and drug reinforcing efficacy. […] BP is a dependent measure used to quantify the degree to which the subject will work to get the next administration of the drug which serves as a reinforcer in the self-administration paradigm. […]
as §2, with “In all cases, P<0.05 was considered statistically significant.” left out

[4] = system: opioid-induced respiratory depression; experiment: Example 4: treatment of a subject prescribed a high level of opioids; assay type: in vivo, human; settings: oral pill, concurrent with opioids
Description: A subject is prescribed a high level of opioids to treat a pain. The subject is concurrently administered RAP-103 to treat opioid-induced respiratory depression. RAP-103 is orally administered to the subject as a pill to treat the opioid-induced respiratory depression. After administration, the subject has no change in their respiratory rate and blood oxygen levels (e.g., maintains full respiratory function).

[5] = system: mu-opioid receptor (OPRM1)
[6] = assay type: in vivo, rodents and non-human primates (Rhesus macaque)
[7] = system: molecular hallmarks of neuropathic pain; settings: previous research; cited from earlier work
[8] = RAP-103 only vs drug-naïve, P>0.05
[9] = RAP-103 0.001, 0.1 mg/kg IP, P>0.05, reduced trend

With D-Thr-D-Thr-D-Asn-D-Tyr-D-Thr [RAP-103] the “GFAP mRNA, PFC” value (GFAP mRNA; RAP-103/morphine exposure, P>0.05) was “significant changes in GFAP or IBA1 were not detected”, the “GFAP gene expression, NAC” value (GFAP mRNA; RAP-103 pretreatment + morphine, P<0.05) was “normalized the augmentation in GFAP gene expression” and the “GFAP mRNA levels, VTA” value (GFAP mRNA; RAP-103 pretreatment, morphine-naïve and morphine-treated rats, vs drug-naïve, P<0.05) was “significantly reduced GFAP mRNA levels”. The acute toxicity [1] was “no acute toxicity”, the body weights [1] was “no RAP-103-related changes” and the clinical observations [1] was “no RAP-103-related changes”. The “CXCR4 protein levels, VTA” value (CXCR4; RAP-103 1 mg/kg IP + morphine) was “did not alter morphine enhancement of CCR2 or CXCR4”, the “CXCR4 protein levels, NAC” value (CXCR4; [8]) was “did not display significantly different levels” and the “CXCR4 protein levels, VTA” value (CXCR4; [8]) was “not significantly different”. The microglial chemotaxis (CCR8) was “inhibit”, the microglial morphological change (CCR8) was “inhibit” and the “inhibition of chemokine ligand binding, CCR5” value (CCR5) was “at least partially inhibits”. For the same substance, the naloxone-precipitated eye blinking [2, 9] was “did not significantly impact”, the “naloxone-precipitated wet dog shakes” value [2, 9] was “did not significantly impact” and the “reduction of frequency of wet dog shakes” value ([2]; RAP-103 1 mg/kg IP daily, morphine 75 mg pellet 7 d, naloxone 10 mg/kg IP, P<0.01) was “approximately 43%”. For the same substance, the “reduction of frequency of eye blinking” value ([2]; RAP-103 1 mg/kg IP daily, morphine 75 mg pellet 7 d, naloxone 10 mg/kg IP, P<0.05) was “approximately 59%”, the paw tremor ([2]; any dose of RAP-103) was “not affected” and the teeth chattering ([2]; any dose of RAP-103) was “not affected”. The “responding on the inactive lever” value [3] was “did not impact responding on the inactive lever”, the “heroin PR breakpoint” value ([3]; PR challenge, P<0.05 vs saline) was “significantly lower breakpoints” and the “active lever responding (heroin SA, FR-1)” value ([3]; heroin 0.1 mg/kg/inf, days 8 (P<0.05), 9 and 10 (P<0.001)) was “significantly reduced active lever responding”. The blood oxygen levels [4] was “no change”, the respiratory rate [4] was “no change” and the “OPRM1 protein levels, PFC” value ([5]; RAP-103 + morphine, vs drug-naïve (P<0.01) and morphine only (P<0.05)) was “significantly elevated”. The “OPRM1 protein levels, VTA” value ([5]; RAP-103 pretreatment 1 mg/kg IP + morphine, P<0.05) was “normalized the morphine-induced enhancement in OPRM1 levels”, the “brain entry, oral compared to IV dosing” value ([6]; FIG. 10A) was “preferentially entered the brain by oral compared to IV dosing” and the brain entry ([6]; oral and IV dosing, rodents and non-human primates) was “quickly entered the brain”. The “CCR2 protein levels, VTA” value (CCR2; RAP-103 1 mg/kg IP + morphine) was “did not alter morphine enhancement of CCR2”, the “CCR2 protein levels, PFC” value (CCR2; RAP-103 by itself vs drug-naïve, P<0.05) was “reduction in CCR2 protein levels” and the “CCR2 protein levels, NAC” value (CCR2; [8]) was “did not display significantly different levels”. The “CCR2 protein levels, VTA” value (CCR2; [8]) was “not significantly different”, the “CCR2 protein levels, NAC” value (CCR2; RAP-103 pretreatment 1 mg/kg IP + morphine, P<0.01) was “normalized morphine-induced deficits in CCR2 levels” and the cell membrane ruffling [7] was “downregulate”. For the same substance, the immune cell migration [7] was “downregulate” and the phagocytosis [7] was “downregulate”.
